From US20090012019A1, “Methods and Compositions Related to TR4” (priority 2005, published 2009)

Legend:
[1] = short acting NO donor, vendor reagent (Alexis); cited from earlier work
[2] = system: TR4; settings: C2C12 cells, 250 μM H2O2 for 2 h; mRNA at 4 hr, protein at 8 hr
Procedure: The levels of TR4 mRNA and proteins were measured by Q-PCR and Western blotting analyses.
To dissect potential molecular mechanism by which TR4 is involved in the ROS/DNA damage/DNA repair signal cascades, TR4 expression levels were examined upon exposure to genotoxic stress (such as H2O2).

[3] = system: TR4; test: Stress-induced TR4 expression in wt MEF; assay type: cell-based, mice; settings: wt MEF treated with cobalt chloride to mimic hypoxia stress

In the case of Nc1n[n+](-c2ccc(Cl)c(Cl)c2)no1.[Cl-] [GEA 3162, 1,2,3,4-oxatriazolium, 5-amino-3-(3,4-dichlorophenyl)-chloride], the halftime [1] is listed as ~3 min.
With OO [H2O2, hydrogen peroxide] the “TR4 mRNA and protein expression” value [2] was “increased”.
For [Cl][Co][Cl] [cobalt chloride], the TR4 expression [3] was “up-regulated”.
